Results as given in PubChem BioAssay AID256 (DTP/NCI, 2004).
Toxic doses and inconclusive results are not listed. How the source made its calls: active means survival T/C of 150% or more; inactive means T/C below 125% in these data.

Tested on: CD2F1 mice, L1210 leukemia ip, survival T/C
Assay: NCI In Vivo Anticancer Drug Screen. Data for tumor model L1210 Leukemia (intraperitoneal) in CD2F1 (CDF1) mice
Conditions: higher = longer survival
Method in brief: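 Mice carrying a transplanted tumor received test compound or vehicle alone. The value is the measurement in the treated group divided by that in the vehicle-treated control group.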

[1] = endpoint: mean survival time, dose: 100.0 mg/kg/injection, schedule: Q04DX002 (ip), vehicle: saline with Tween-80
[2] = endpoint: mean survival time, dose: 200.0 mg/kg/injection, schedule: Q04DX002 (ip), vehicle: saline with Tween-80
[3] = endpoint: mean survival time, dose: 400.0 mg/kg/injection, schedule: Q04DX002 (ip), vehicle: saline with Tween-80
[4] = endpoint: mean survival time, dose: 12.5 mg/kg/injection, schedule: Q04DX003 (ip), vehicle: saline with Tween-80
[5] = endpoint: mean survival time, dose: 50.0 mg/kg/injection, schedule: Q04DX002 (ip), vehicle: saline with Tween-80
[6] = endpoint: mean survival time, dose: 100.0 mg/kg/injection, schedule: Q01DX009 (ip), vehicle: Klucel (hydroxypropylcellulose) (HPC)
[7] = endpoint: mean survival time, dose: 200.0 mg/kg/injection, schedule: Q01DX009 (ip), vehicle: Klucel (hydroxypropylcellulose) (HPC)
[8] = endpoint: mean survival time, dose: 400.0 mg/kg/injection, schedule: Q01DX009 (ip), vehicle: Klucel (hydroxypropylcellulose) (HPC)
[9] = endpoint: mean survival time, dose: 100.0 mg/kg/injection, schedule: Q04DX003 (ip), vehicle: saline with Tween-80
[10] = endpoint: mean survival time, dose: 200.0 mg/kg/injection, schedule: Q04DX003 (ip), vehicle: saline with Tween-80
[11] = endpoint: mean survival time, dose: 400.0 mg/kg/injection, schedule: Q04DX003 (ip), vehicle: saline with Tween-80

Measured: T/C

COc1cc2cc(c1Cl)N(C)C(=O)CC(OC(=O)C(C)N(C)C(=O)C(C)C)C1(C)OC1C(C)C1CC(O)(NC(=O)O1)C(OC)/C=C/C=C(C)C2OC (centres undefined)
inactive: endpoint: median survival time, dose: 4.0 micrograms/kg/injection, schedule: Q01DX009 (ip), vehicle: Klucel (hydroxypropylcellulose) (HPC) 104 % of control | endpoint: median survival time, dose: 8.0 micrograms/kg/injection, schedule: Q01DX009 (ip), vehicle: Klucel (hydroxypropylcellulose) (HPC) 112 % of control | endpoint: median survival time, dose: 16.0 micrograms/kg/injection, schedule: Q01DX009 (ip), vehicle: Klucel (hydroxypropylcellulose) (HPC) 112 % of control | endpoint: median survival time, dose: 64.0 micrograms/kg/injection, schedule: Q01DX009 (ip), vehicle: Klucel (hydroxypropylcellulose) (HPC) 105 % of control

CCCCCCCCCCCC(=O)/C=C/Sc1n[nH]c(=O)[nH]c1=O
inactive: endpoint: mean survival time, dose: 12.5 mg/kg/injection, schedule: Q01DX005 (ip), vehicle: distilled water + Tween-80 102 % of control | endpoint: mean survival time, dose: 25.0 mg/kg/injection, schedule: Q01DX005 (ip), vehicle: distilled water + Tween-80 104 % of control | endpoint: mean survival time, dose: 50.0 mg/kg/injection, schedule: Q01DX005 (ip), vehicle: distilled water + Tween-80 100 % of control | endpoint: mean survival time, dose: 100.0 mg/kg/injection, schedule: Q01DX005 (ip), vehicle: distilled water + Tween-80 102 % of control

Cc1ccccc1NC(=O)Oc1cccc(OC(=O)c2ccccc2)c1
inactive: [1] 103 % of control | [2] 103 % of control | [3] 91 % of control

[Cl][Pt+2][Cl].[NH-]c1cccc(F)c1.[NH-]c1cccc(F)c1
inactive: [4] 97 % of control | endpoint: mean survival time, dose: 25.0 mg/kg/injection, schedule: Q04DX003 (ip), vehicle: saline with Tween-80 114 % of control | endpoint: mean survival time, dose: 50.0 mg/kg/injection, schedule: Q04DX003 (ip), vehicle: saline with Tween-80 102 % of control

O=C(CC(O)C(Cl)(Cl)Cl)c1ccccc1 (centres undefined)
inactive: [5] 88 % of control | [1] 88 % of control

CC1=C(CCC(=O)O)C(=O)C(CCC(=O)O)C(C)(C)C1 (centres undefined)
inactive: [1] 96 % of control | [2] 100 % of control | [3] 100 % of control

CCCc1cc(=O)[nH]c(SCC(=O)O)n1
inactive: [1] 98 % of control | [2] 98 % of control | [3] 92 % of control

[Na+]
inactive: endpoint: median survival time, dose: 25.0 mg/kg/injection, schedule: Q01DX009 (ip), vehicle: water 105 % of control | endpoint: median survival time, dose: 50.0 mg/kg/injection, schedule: Q01DX009 (ip), vehicle: water 102 % of control | endpoint: median survival time, dose: 100.0 mg/kg/injection, schedule: Q01DX009 (ip), vehicle: water 93 % of control | endpoint: median survival time, dose: 200.0 mg/kg/injection, schedule: Q01DX009 (ip), vehicle: water 100 % of control | endpoint: median survival time, dose: 400.0 mg/kg/injection, schedule: Q01DX009 (ip), vehicle: water 105 % of control

Cc1ccc(S(=O)(=O)NC2CCC(C(=O)O)CC2)cc1 (centres undefined)
inactive: [6] 103 % of control | [7] 103 % of control | [8] 92 % of control

O=C(O)C1C2OC3C(OC(=O)C31)C2Br (centres undefined)
inactive: endpoint: mean survival time, dose: 100.0 mg/kg/injection, schedule: Q01DX009 (ip), vehicle: saline with Tween-80 96 % of control | [9] 91 % of control | endpoint: mean survival time, dose: 200.0 mg/kg/injection, schedule: Q01DX009 (ip), vehicle: saline with Tween-80 93 % of control | [10] 89 % of control | endpoint: mean survival time, dose: 400.0 mg/kg/injection, schedule: Q01DX009 (ip), vehicle: saline with Tween-80 91 % of control | [11] 89 % of control

COC(=O)C1C2CCC(COC(C)=O)(O2)C1C(=O)O (centres undefined)
inactive: endpoint: mean survival time, dose: 100.0 mg/kg/injection, schedule: Q01DX001 (ip), vehicle: saline with Tween-80 94 % of control | endpoint: mean survival time, dose: 100.0 mg/kg/injection, schedule: Q01DX009 (ip), vehicle: saline 96 % of control | endpoint: mean survival time, dose: 200.0 mg/kg/injection, schedule: Q01DX001 (ip), vehicle: saline with Tween-80 97 % of control | endpoint: mean survival time, dose: 200.0 mg/kg/injection, schedule: Q01DX009 (ip), vehicle: saline 98 % of control | endpoint: mean survival time, dose: 400.0 mg/kg/injection, schedule: Q01DX001 (ip), vehicle: saline with Tween-80 88 % of control

CC[NH-].[Cl][Pt+2][Cl].[NH-]C1CC1
inactive: endpoint: mean survival time, dose: 3.13 mg/kg/injection, schedule: Q04DX003 (ip), vehicle: distilled water + Tween-80 116 % of control

CC1/C=C/C=C/CC/C=C/C=C/C=C/C=C/C(OC2OC(C)C(O)C(N)C2O)CC2OC(CC(O)C(O)CCC(O)CC(O)CC(O)CC(=O)OC(C)C(C)C1O)CC(O)C2C(=O)O (centres undefined)
inactive: endpoint: mean survival time, dose: 9.5 mg/kg/injection, schedule: Q01DX009 (ip), vehicle: saline sonified 95 % of control | endpoint: mean survival time, dose: 9.5 mg/kg/injection, schedule: Q04DX003 (ip), vehicle: saline sonified 98 % of control | endpoint: mean survival time, dose: 19.0 mg/kg/injection, schedule: Q01DX009 (ip), vehicle: saline sonified 93 % of control | endpoint: mean survival time, dose: 19.0 mg/kg/injection, schedule: Q04DX003 (ip), vehicle: saline sonified 92 % of control | endpoint: mean survival time, dose: 38.0 mg/kg/injection, schedule: Q01DX009 (ip), vehicle: saline sonified 87 % of control | endpoint: mean survival time, dose: 38.0 mg/kg/injection, schedule: Q04DX003 (ip), vehicle: saline sonified 100 % of control | endpoint: median survival time, dose: 6.25 mg/kg/injection, schedule: Q01DX009 (ip), vehicle: saline with Tween-80 100 % of control | endpoint: median survival time, dose: 12.5 mg/kg/injection, schedule: Q01DX009 (ip), vehicle: saline with Tween-80 100 % of control | endpoint: median survival time, dose: 25.0 mg/kg/injection, schedule: Q01DX009 (ip), vehicle: saline with Tween-80 102 % of control | endpoint: median survival time, dose: 50.0 mg/kg/injection, schedule: Q01DX009 (ip), vehicle: saline with Tween-80 101 % of control | endpoint: median survival time, dose: 100.0 mg/kg/injection, schedule: Q01DX009 (ip), vehicle: saline with Tween-80 100 % of control

Cc1nc(-c2ccc(N=Cc3ccc(N(CCOS(C)(=O)=O)CCOS(C)(=O)=O)cc3C)cc2)c(C)s1
inactive: endpoint: mean survival time, dose: 5.0 mg/kg/injection, schedule: Q01DX001 (ip), vehicle: Klucel (hydroxypropylcellulose) (HPC) 101 % of control | endpoint: mean survival time, dose: 10.0 mg/kg/injection, schedule: Q01DX001 (ip), vehicle: Klucel (hydroxypropylcellulose) (HPC) 104 % of control | endpoint: mean survival time, dose: 20.0 mg/kg/injection, schedule: Q01DX001 (ip), vehicle: Klucel (hydroxypropylcellulose) (HPC) 104 % of control | endpoint: mean survival time, dose: 40.0 mg/kg/injection, schedule: Q01DX001 (ip), vehicle: Klucel (hydroxypropylcellulose) (HPC) 115 % of control

CC1(C2CC(=O)c3c(O)ccc(O)c3C2)OCCO1 (centres undefined)
inactive: endpoint: mean survival time, dose: 25.0 mg/kg/injection, schedule: Q01DX009 (ip), vehicle: Klucel (hydroxypropylcellulose) (HPC) 104 % of control | endpoint: mean survival time, dose: 50.0 mg/kg/injection, schedule: Q01DX009 (ip), vehicle: Klucel (hydroxypropylcellulose) (HPC) 109 % of control | [6] 95 % of control | [7] 98 % of control | [8] 102 % of control

O=[N+]([O-])c1ccc(NN=C2c3ccccc3Cc3ccccc32)c([N+](=O)[O-])c1
inactive: endpoint: mean survival time, dose: 25.0 mg/kg/injection, schedule: Q04DX002 (ip), vehicle: saline with Tween-80 98 % of control | [5] 91 % of control | [1] 87 % of control

CN(C)c1ccc([N+](=O)[O-])cc1[N+](=O)[O-]
inactive: endpoint: mean survival time, dose: 62.5 mg/kg/injection, schedule: Q01DX001 (ip), vehicle: Klucel (hydroxypropylcellulose) (HPC) 94 % of control | endpoint: mean survival time, dose: 125.0 mg/kg/injection, schedule: Q01DX001 (ip), vehicle: Klucel (hydroxypropylcellulose) (HPC) 94 % of control | endpoint: mean survival time, dose: 250.0 mg/kg/injection, schedule: Q01DX001 (ip), vehicle: Klucel (hydroxypropylcellulose) (HPC) 92 % of control | endpoint: mean survival time, dose: 500.0 mg/kg/injection, schedule: Q01DX001 (ip), vehicle: Klucel (hydroxypropylcellulose) (HPC) 102 % of control

O=C1Nc2ccccc2C(=O)Nc2ccccc21
inactive: [6] 93 % of control | [7] 89 % of control

O=C(NC(C(=O)O)c1ccccc1)OCc1ccccc1 (centres undefined)
inactive: [9] 102 % of control | [10] 107 % of control | [11] 97 % of control

OC1C2CCC(C2)C1C(O)(C(F)(F)F)C(F)(F)F (centres undefined)
inactive: endpoint: mean survival time, dose: 3.13 mg/kg/injection, schedule: Q01DX009 (ip), vehicle: saline 104 % of control | endpoint: mean survival time, dose: 6.25 mg/kg/injection, schedule: Q01DX009 (ip), vehicle: saline 98 % of control | endpoint: mean survival time, dose: 6.25 mg/kg/injection, schedule: Q04DX003 (ip), vehicle: saline with Tween-80 98 % of control | endpoint: mean survival time, dose: 12.5 mg/kg/injection, schedule: Q01DX009 (ip), vehicle: saline 103 % of control | [4] 98 % of control

O=C1NCCN1c1ccc([N+](=O)[O-])cc1
inactive: endpoint: mean survival time, dose: 12.5 mg/kg/injection, schedule: Q01DX009 (ip), vehicle: other 89 % of control | endpoint: mean survival time, dose: 25.0 mg/kg/injection, schedule: Q01DX009 (ip), vehicle: other 103 % of control | endpoint: mean survival time, dose: 50.0 mg/kg/injection, schedule: Q01DX009 (ip), vehicle: other 94 % of control | endpoint: mean survival time, dose: 100.0 mg/kg/injection, schedule: Q01DX009 (ip), vehicle: other 96 % of control | endpoint: mean survival time, dose: 200.0 mg/kg/injection, schedule: Q01DX009 (ip), vehicle: other 96 % of control
